Reference: patent publication US11712434B2, “Compound having anti-cancer effect, and preparation method therefor and use thereof” (3D MEDICINES (BEIJING) CO., LTD., priority 2016, dated 2023)

Legend:
[1] = test system: liver cancer; conditions: liver cancer patients, phase III; cited from earlier work
[2] = test system: NCI-H1703; test: Cell proliferation assay (Alamar Blue); type: cell-based; conditions: Homo sapiens, 144 h; NCI-H1703 (lung cancer cells); 6 days culture
Experimental: (§1) 1. Instruments and Materials • Thermo 311 CO2 incubator; Haier biosafety cabinet; Molecular Devices microplate reader; Xiangyi brand L530 desktop low speed centrifuge; Olympus IX51 inverted fluorescence microscope, DMEM, RPMI 1640, MEM, DMEM/F12 1:1 medium, Fetal bovine serum, 0.25% trypsin solution, phosphate buffer (Thermo Fisher Shanghai Co., Ltd.); sigma dimethyl sulfoxide (DMSO), resazurin; 54 commercial tumor cell lines (including 26 liver cancer cell lines). Experimental drugs: compounds 1-12 and active drug Linifanib; chemotherapeutic drug Doxorubicin (HY-15142; Shanghai Qianyuan Biomedical Technology Co., Ltd.).
(§2) 2. Experimental Methods • 2.1 Cultivation of Different Cell Lines • 54 cell lines were cultured in a culture medium containing fetal bovine serum and placed in a 5% CO2 incubator at 37° C. for incubation. The cells were all grown in an adherent state, and the growth was observed under an inverted microscope, and subculture was performed when the cell confluence rate reached 80%-90%. The proportion and quantity of passage were determined by experimental needs. The ratio of subculture of this cell line was generally 1:2^˜1:3. • 2.2 Inhibition Effect on the Proliferation of Different Tumor Cell Lines • Cell test: 54 cell lines in logarithmic growth phase were inoculated in 96-well culture plates at 500^˜1×10^4/well (the optimal seeding density of each cell line was determined in pre-experiment), After incubating at 37° C. for 4 h in a 5% CO2 humidification incubator, added 10 μL of compounds 1-12 or Linifanib to each well, and tested 9 drug concentration gradients for each compound (diluted from the highest concentration of the test by 3.16 times). The solubility of each compound was different at a starting concentration of 100 or 30 μM, respectively. The QC reference compound Doxorubicin was added simultaneously to each cell line test, and the final drug concentrations were 10, 3.16, 1, 0.31, 0.1, 0.03, 0.01, 0.003, and 0.001 μM, respectively. In addition, a positive control group (100% inhibition) and a negative control group (0% inhibition) were set at the same time. The drug group was repeated for 2 wells per concentration, and the positive control group and the negative control group were repeated for 6 wells. After the culture was continued for 6 days in the incubator, AlamarBlue test operation was followed; • AlamarBlue test procedure: Incubated with 10 μL of AlamarBlue reagent per well for 1-4 h, shook for 1-2 min, MD microplate reader EX: 560 nm, EM: 590 nm wavelength to measure fluorescence, recorded the results, calculated the cell inhibition rate of the compound of the invention. Cell inhibition rate (%)=(A0% inhibition−A administration)/(A0% inhibition−A100% inhibition)×100%, and then using the method of nonlinear regression using GraphPad Prism 5.0 or MATILAB software (usually using four parameters) to graph and obtain a drug dose response curve to obtain an IC50 value of the compound of the present invention acting on a cancer cell line.

[3] = test system: NCI-H661; test: Cell proliferation assay (Alamar Blue); type: cell-based; conditions: Homo sapiens, 144 h; NCI-H661 tumor cell line; 6 days culture
Experimental: as §1, §2

[4] = test system: NCI-H2170; test: Cell proliferation assay (Alamar Blue); type: cell-based; conditions: Homo sapiens, 144 h; NCI-H2170 tumor cell line; 6 days culture
Experimental: as §1, §2

[5] = test system: NCI-H716; test: Cell proliferation assay (Alamar Blue); type: cell-based; conditions: Homo sapiens, 144 h; NCI-H716 tumor cell line; 6 days culture
Experimental: as §1, §2

[6] = test system: NCI-H1648; test: Cell proliferation assay (Alamar Blue); type: cell-based; conditions: Homo sapiens, 144 h; NCI-H1648 tumor cell line; 6 days culture
Experimental: as §1, §2

[7] = test system: NCI-H526; test: Cell proliferation assay (Alamar Blue); type: cell-based; conditions: Homo sapiens, 144 h; NCI-H526 tumor cell line; 6 days culture
Experimental: as §1, §2

IC50 [2] | IC50 [3] | IC50 [4] | IC50 [5] | IC50 [6] | IC50 [7] | SMILES | ORR (overall response rate) [1] | TTP (time to progression) [1] | toxicity and side effects [1]
– | – | – | – | – | – | CNC(=O)c1cc(Oc2ccc(NC(=O)Nc3ccc(Cl)c(C(F)(F)F)c3)cc2)ccn1 [Sorafenib] | 6.9% | 4.0 months | –
0.02 µM | 13.3 µM | 4 µM | 4.1 µM | 7.17 µM | 7.8 µM | Cc1ccc(F)c(NC(=O)Nc2ccc(-c3cccc4[nH]nc(N)c34)cc2)c1 [Linifanib, reference compound] | – | – | greater than Sorafenib
